Article PMC8284453 (Antimicrobial Agents and Chemotherapy, 2021)
≈ marks a conversion by molar mass, not a printed value. Read-outs that look alike come from different tables or passages of the source.

Assays:
[1] = target: T1, P99AmpC (Enterobacter cloacae, UniProt P05364); experiment: IC50 determination against purified β-lactamase; type: biochemical; set-up: P99AmpC was purified directly from the Enterobacter cloacae P99 clinical isolate; made in house; host or cells: Enterobacter cloacae P99 (native producer, induced with sub-MIC imipenem); conditions: substrate nitrocefin; mean from duplicate measurements
Protocol: (§1) An equal volume of enzyme was added (assay concentrations, 0.6 nM P99AmpC, 21 nM CTX-M-15, 3 nM KPC-2, 100 nM SHV-5), and the mixtures were preincubated for 15 min at 37°C. For AmpC, nitrocefin was then added to obtain a final concentration of 100 μM, and the absorbance at a wavelength (λ) of 486 nm (representing hydrolysis of the nitrocefin β-lactam ring) was monitored immediately using a BioTek Powerwave XS2 microplate reader. In similar fashion, using UV-transparent 96-well microtiter plates, hydrolysis of imipenem (100 μM) by KPC-2 was monitored at λ 300 nm, while cefotaxime (100 μM) hydrolysis by CTX-M-15 and SHV-5 was monitored at λ 300 nm. Assays were performed in duplicate, and the percentage inhibition relative to reaction mixtures containing no inhibitor were determined for each concentration of inhibitor.

[2] = target: T2, CMY-2 (Klebsiella pneumoniae, UniProt Q48434); experiment: IC50 determination against purified β-lactamase; type: biochemical
T2 construct: made in house; host or cells: E. coli BL21(DE3), pET9a

[3] = target: T3, OXA-1 (Escherichia coli, UniProt P13661); experiment: IC50 determination against purified β-lactamase; type: biochemical; conditions: substrate nitrocefin; mean from duplicate measurements
T3 construct: made in house; host or cells: E. coli BL21(DE3), pET9a

[4] = target: T4, CTX-M-15 (Escherichia coli, UniProt Q9EXV5); experiment: IC50 determination against purified β-lactamase; type: biochemical; set-up: made in house; host or cells: E. coli BL21(DE3), plasmid pET-CTX-M-15 (pET9a)
Protocol: as §1

[5] = target: T5, KPC-2 (Klebsiella pneumoniae, UniProt Q9F663); experiment: IC50 determination against purified β-lactamase; type: biochemical; set-up: made in house; host or cells: E. coli BL21(DE3), plasmid pET-KPC-2 (pET9a); conditions: substrate imipenem; mean from duplicate measurements
Protocol: as §1

[6] = test system: isogenic strains of E. coli expressing Ambler class A, B, C, and D enzymes; experiment: microbe, parasite or virus in culture; type: cell-based, Escherichia coli; conditions: Escherichia coli, read-out: modal MIC
[7] = target: T6, OXA-48 (Klebsiella pneumoniae, UniProt Q6XEC0); experiment: biochemical
T6 construct: made in house; host or cells: E. coli BL21(DE3), plasmid pET-OXA-48 (pET9a)

[8] = test system: K. pneumoniae 752286 (OXA-48); experiment: Broth microdilution MIC; type: cell-based; conditions: Klebsiella pneumoniae
[9] = test system: E. coli ESBL4 (CTX-M-15); experiment: Broth microdilution MIC; type: cell-based; conditions: Escherichia coli
[10] = test system: K. pneumoniae ATCC BAA-1705 (KPC-2); experiment: Broth microdilution MIC; type: cell-based; conditions: Klebsiella pneumoniae, ATCCBAA1705
[11] = test system: E. cloacae ECL01 (TEM-72, ACT-1, P99AmpC); experiment: Broth microdilution MIC; type: cell-based; conditions: Enterobacter cloacae
[12] = test system: K. pneumoniae ATCC BAA-1705 (KPC-2); experiment: 24-h time-kill assay; type: cell-based; conditions: Klebsiella pneumoniae, ATCCBAA1705; lowest concentration with ≥3-log10 CFU/ml reduction at 24 h; read-out: MBC
Protocol: (§2) In vitro antibacterial time-kill assay. […] Time-kill assays were performed in 14 ml glass tubes or deep-well storage plates with a bacterial inoculum in CAMHB of 5 × 10^5 CFU/ml. The tubes/plates were incubated at 37°C with shaking at 200 rpm, and aliquots were drawn at six time points (0, 2, 4, 6, 8, and 24 h) to conduct 0.5 log10 dilutions in CAMHB in 96-well plates that were incubated overnight at 37°C and used to ascertain viable bacterial counts. The lowest quantifiable amount by this method is 2 log10 CFU/ml.

[13] = test system: E. cloacae ECL01 (TEM-72, ACT-1, P99AmpC); experiment: 24-h time-kill assay; type: cell-based
Protocol: as §2

[14] = test system: K. pneumoniae 752286 (OXA-48); experiment: 24-h time-kill assay; type: cell-based; conditions: Klebsiella pneumoniae; lowest concentration with ≥3-log10 CFU/ml reduction at 24 h; read-out: MBC
Protocol: as §2

[15] = test system: E. coli ESBL4 (CTX-M-15); experiment: 24-h time-kill assay; type: cell-based; conditions: Escherichia coli; lowest concentration with ≥3-log10 CFU/ml reduction at 24 h; read-out: MBC
Protocol: as §2

[16] = target: T7, SHV-5 (Klebsiella pneumoniae, UniProt P0A3M1); experiment: biochemical; type: biochemical
T7 construct: made in house; host or cells: E. coli BL21(DE3)/pLysS, plasmid pET-SHV-5 (pET9a)

[17] = target: T8, protein serine/threonine phosphatase, PPP3CA (calcineurin PP2B) (Homo sapiens, UniProt Q08209); experiment: DrugMatrixScreen selectivity panel; type: biochemical; conditions: screening concentration of 100 μM
T8 construct: Eurofins/Panlabs (DrugMatrixScreen, contract assay)
Protocol: (§3) Binding, enzymatic, and uptake assays representing a wide range of cellular and subcellular target classes were performed. […] The in vivo significance of these in vitro activities is not known.
(§4) The selectivity of VNRX-5236 was assessed in the DrugMatrixScreen at Eurofins Discovery Services. This screen encompasses 123 mammalian receptor and enzyme classes (and a single prokaryotic target, a β-lactamase) that can be used to assess the potential off-target activities of development candidates ([34]).

[18] = target: T9, protein tyrosine kinase Fyn (Homo sapiens, UniProt P06241); experiment: DrugMatrixScreen selectivity panel; type: biochemical; conditions: screening concentration of 100 μM
T9 construct: Eurofins/Panlabs (DrugMatrixScreen, contract assay)
Protocol: as §3, §4

[19] = test system: 3T3; experiment: Mammalian cell cytotoxicity; type: cell-based; conditions: dividing cell cultures
Protocol: (§5) Mammalian cell cytotoxicity. Cytotoxicity evaluations were conducted on actively dividing cells to maximize assay sensitivity. Procedurally, 180 μl of cells were seeded in cell-culture-treated 96-well plates (Celltreat, Pepperell, MA) at a density of 2 × 10^4 to 3.5 × 10^4 cells/ml and incubated overnight at 37°C in a humidified, 5% CO2 atmosphere. The next day, compound was diluted in PBS with 6% DMSO in a 0.5 log10 dilution scheme at 10 times the final compound concentration array. […] The cytotoxic agent chlorohexidine was assayed as a positive control at compound concentrations ranging from 0.31 to 100 μg/ml. The final DMSO concentration in all assays was 0.6%.
(§6) After an additional 72 h of incubation (when cells reached 90 to 100% confluence) Cell Titer 96 AQ solution was added at 20 μl per well, and plates were incubated an additional 2 to 4 h at 37°C and 5% CO2. The optical density of the wells was read on a Biotek Cytation 3 plate reader at 490 nm. Background signal (wells receiving Cell Titer reagent but containing no cells) was subtracted from all wells on the plate. […] Experiments were run in triplicate with data from all three trials included in the data analysis.

[20] = test system: MRC-5; experiment: Mammalian cell cytotoxicity; type: cell-based; conditions: dividing cell cultures
Protocol: as §5, §6

[21] = test system: HeLa; experiment: Mammalian cell cytotoxicity; type: cell-based; conditions: dividing cell cultures
Protocol: as §5, §6

[22] = test system: four strains of Gram-positive organisms or nine strains of Gram-negative bacilli; experiment: Stand-alone antibacterial activity; type: cell-based; conditions: all MICs
[23] = target: T5, KPC-2; experiment: biochemical
[24] = test system: serine β-lactamases (CTX-M-15, SHV-5, KPC-2, P99AmpC); experiment: Kinetic parameters, summary across enzymes; type: biochemical; conditions: range across the four enzymes
[25] = target: T1, P99AmpC; experiment: Kinetic parameters of reversible inactivation
[26] = target: T4, CTX-M-15; experiment: biochemical
[27] = set-up: method as in earlier work; conditions: cited from earlier work
[28] = DrugMatrixScreen selectivity panel; conditions: 10 μM; 129 in vitro assays
Protocol: as §3, §4

[29] = substrate nitrocefin, mean from duplicate measurements, read-out: IC50
[30] = substrate cefotaxime, mean from duplicate measurements, read-out: IC50
[31] = half-life of active site occupancy

Structure (SMILES): NC(=O)[C@@H]1CC[C@@H]2CN1C(=O)N2OS(=O)(=O)O [Avibactam, avibactam]
- IC50 [1]: 20 nM
- IC50 [2, 29]: 7 nM
- IC50 [3]: 40 nM
- IC50 [4, 30]: 3 nM

Structure (SMILES): O=C(O)[C@H]1/C(=C/CO)O[C@@H]2CC(=O)N21 [Clavulanic acid, clavulanic acid]
- IC50 [5]: 1800 nM
- MIC [6]: 32 µg/mL (≈ 161 µM)
- IC50 [7]: 14.3 µM
- IC50 [3]: 120 nM
- IC50 [4, 30]: 40 nM

Structure (SMILES): C[C@H]1COc2c(N3CCN(C)CC3)c(F)cc3c(=O)c(C(=O)O)cn1c23 [Levofloxacin, levofloxacin]
- MIC [8]: 32 µg/mL (≈ 88.6 µM)
- MIC [9]: 32 µg/mL (≈ 88.6 µM)
- MIC [10]: 64 µg/mL (≈ 177 µM)
- MIC [11]: 0.12 µg/mL (≈ 0.332 µM)
- MBC [12]: ≥ 64 µg/mL
- MBC ([13]; Enterobacter cloacae, lowest concentration with ≥3-log10 CFU/ml reduction at 24 h, read-out: MBC): 0.12 µg/mL (≈ 0.332 µM)
- outcome of 24-h time-kill assay ([13]; Fig. 3b): bactericidal activity
- MBC [14]: > 32 µg/mL
- MBC [15]: 32 µg/mL (≈ 88.6 µM)

Structure (SMILES): C[C@]1(Cn2ccnn2)[C@H](C(=O)O)N2C(=O)C[C@H]2S1(=O)=O [Tazobactam, tazobactam]
- IC50 [5]: 1700 nM
- IC50 [2, 29]: 410 nM
- IC50 [7]: 3.5 µM

Structure (SMILES): CCC(=O)N[C@H]1Cc2cccc(C(=O)O)c2OB1O [VNRX-5236]
- Ki [16]: 40 nM
- k−2 ([16]; off rate, jump dilution): 12.7 ± 0.07 10^−4 s^−1
- IC50 [5]: 80 nM
- inhibition at 100 µM [17]: 56%
- inhibition at 100 µM [18]: 77%
- noncytotoxic up to the highest concentration tested [19]: > 1 mg/mL
- noncytotoxic up to the highest concentration tested [20]: > 1 mg/mL
- noncytotoxic up to the highest concentration tested [21]: > 1 mg/mL
- MIC [22]: ≥ 128 µg/mL
- Ki [23]: 110 nM
- t1/2 [23, 31]: 46 ± 2 min
- k−2 ([23]; off rate, jump dilution): 2.5 ± 0.1 10^−4 s^−1
- IC50 [2]: 10 nM
- Dissociation rates (k-2) [24]: 2.5 to 24 10^−4 s^−1
- Ki [24]: 10 to 110 nM
- t1/2 [25, 31]: 5 ± 0.1 min
- k−2 ([25]; off rate, jump dilution): 24 ± 0.5 10^−4 s^−1
- IC50 [3]: 70 nM
- Ki [26]: 10 nM
- t1/2 [26, 31]: 26 ± 0.6 min
- k−2 ([26]; off rate, jump dilution): 4.5 ± 0.1 10^−4 s^−1
- IC50 [4]: 20 nM

Structure (SMILES): CCC(=O)N[C@H]1Cc2cccc(C(=O)OCOC(=O)C(CC)CC)c2OB1O [VNRX-7145]
- noncytotoxic up to the highest concentration tested [19]: > 0.128 mg/mL
- noncytotoxic up to the highest concentration tested [20]: > 0.128 mg/mL
- MIC [22]: ≥ 128 µg/mL
- levels of circulating VNRX-7145 ([27]; all PK time points): exceedingly low
- oral bioavailability ([27]; rats, dogs, and monkeys): high oral bioavailability
- off-target findings [28]: no notable off-target findings
